Measurements from paper PMC5487340, “Peptides derived from MARCKS block coagulation complex assembly on phosphatidylserine” (Scientific Reports, 2017).

B1: annexin V: PS binding protein, positive control (protein)
chain: MAQVLRGTVTDFPGFDERADAETLRKAMKGLGTDEESILTLLTSRSNAQRQEISAAFKTLFGRDLLDDLKSELTGKFEKLIVALMKPSRLYDAYELKHALKGAGTNEKVLTEIIASRTPEELRAIKQVYEEEYGSSLEDDVVGDTSGYYQRMLVVLLQANRDPDAGIDEAQVEQDAQALFQAGELKWGTDEEKFITIFGTRSVSHLRKVFDKYMTISGFQIEETIDRETSGNLEQLLLAVVKSIRSIPAYLAETLYYAMKGAGTDDHTLIRVMVSRSEIDLFNIRKEFRKNFATSLYSMIKGDTSGDYKKALLLLCGEDD

Experiments:
[1] = test system: prothrombinase (bovine FXa and FVa) on washed human platelets activated by convulxin and thrombin; experiment: Platelet-dependent prothrombinase assay; type: biochemical; details: 1 μM, washed human platelets with convulxin and thrombin, thrombin Vmax with S-2238, n = 8
Experimental: Human whole blood was collected from healthy volunteers by venipuncture into 3.2% sodium citrate. Washed platelets were prepared from whole blood collected by venipuncture into 3.8% sodium citrate and acid-citrate-dextrose (ACD). Platelet-rich plasma (PRP) was prepared by centrifugation of whole blood at 200 g for 20 min. Platelets were isolated from the PRP by centrifugation at 1000 g for 10 min with 0.1 μg ml^−1 prostacyclin (PGI2) (Sigma-Aldrich). The resulting pellet was resuspended with modified Tyrode’s buffer (129 mM NaCl, 20 mM HEPES, 12 mM NaHCO3, 2.9 mM KCl, 1.0 mM MgCl2, 0.34 mM Na2HPO4, 5 mM glucose, pH 7.3), ACD, and 0.1 μg ml^−1 PGI2. Platelets were then washed by re-pelleting at 1000 g for 10 min and re-suspending with modified Tyrode’s buffer.
Effects on coagulation factor enzymatic activity were determined using a modification of a previously described prothrombinase assay, [55]. Washed human platelets (8 × 10^5 reaction^−1) were incubated at 37 °C with either a buffer blank or 375 ng ml^−1 convulxin (Centerchem, Norwalk, CT) and 5.0 nM thrombin (Haematologic Technologies) in modified Tyrode’s buffer containing 2.9 mM CaCl2 and 0.05% wt vol^−1 fatty acid-free bovine serum albumin (BSA). After 7 min, 1 μM investigational peptide or protein, or a buffer blank, was added, followed 3 min later by bovine FXa (3 nM) and FVa (6 nM) (Haematologic Technologies). […]

[2] = test system: fibrin formation in whole human blood; experiment: Whole blood microfluidic flow assay; type: cell-based; details: whole human blood over collagen, 10 min, wall shear rate 100 s^-1, 1 μM peptide or annexin V, heparin 15 USP ml^-1, n = 6
From the text: Effects on whole blood platelet activation and accumulation, as well as fibrin formation, were examined using a modification of a previously described microfluidic flow assay. A custom polydimethylsiloxane microfluidic flow device containing four channels, each with a height of 100 μm and width of 500 μm, was vacuum mounted to a glass slide patterned with a type I fibrillar collagen strip (Chrono-log). The microfluidic flow device channels were oriented perpendicular to the patterned collagen strip, resulting in a 50 μm patch of collagen across the width of each channel. Whole blood was labeled with a Pacific Blue anti-human CD41 antibody (BioLegend) for 10 min, followed by the addition of 30 μg ml^−1 Alexa Fluor 647 human plasma fibrinogen conjugate (Life Technologies) and either 1 μM NBD labeled investigational peptide, 1 μM annexin V (BioVision), or 15 USP ml^−1 heparin. Immediately before the assay, the whole blood mixture was recalcified to 7.5 mM CaCl2. The whole blood was then pulled through the device channels for 10 min at wall shear rate 100 s^−1 using a PhD Ultra syringe pump (Harvard Apparatus, Holliston, MA). […] Fluorescence intensities and platelet surface area coverages were measured using ImageJ (NIH, Bethesda, MD). […]

[3] = test system: P-selectin positive platelets; experiment: Flow cytometry of binding to platelets; type: cell-based; details: washed human platelets, 1 μM NBD labeled peptide, 30 min, n = 6
Experimental: Human whole blood was collected from healthy volunteers by venipuncture into 3.2% sodium citrate. Washed platelets were prepared from whole blood collected by venipuncture into 3.8% sodium citrate and acid-citrate-dextrose (ACD). Platelet-rich plasma (PRP) was prepared by centrifugation of whole blood at 200 g for 20 min. Platelets were isolated from the PRP by centrifugation at 1000 g for 10 min with 0.1 μg ml^−1 prostacyclin (PGI2) (Sigma-Aldrich). The resulting pellet was resuspended with modified Tyrode’s buffer (129 mM NaCl, 20 mM HEPES, 12 mM NaHCO3, 2.9 mM KCl, 1.0 mM MgCl2, 0.34 mM Na2HPO4, 5 mM glucose, pH 7.3), ACD, and 0.1 μg ml^−1 PGI2. Platelets were then washed by re-pelleting at 1000 g for 10 min and re-suspending with modified Tyrode’s buffer. Washed platelets were obtained from the whole blood as described above. The platelets were resuspended in modified Tyrode’s buffer containing 2 mM CaCl2, counted, and diluted to 2 × 10^4 platelets μL^−1. Platelets were stimulated with either 1 IU ml^−1 thrombin (Chrono-log, Havertown, PA), 250 ng ml^−1 convulxin (Centerchem), 1 IU ml^−1 thrombin and 250 ng ml^−1 convulxin, or left unstimulated for 10 min at room temperature. […] The samples were then immediately fixed in 1% paraformaldehyde, diluted, and analyzed on a MoFlo Astrios EQ flow cytometer (Beckman Coulter, Brea, CA) with appropriate color compensation.

Row | Molecule | reduction in prothrombinase activity [1] | fibrin formation on adherent platelets (in words) [2] | labeling of unstimulated platelets [3]
1 | H-GGDYDKIGKNDA-NH2 [C2BL3-L, NH2-GGDYDKIGKNDA-CONH2] | 17% | – | –
2 | heparin | – | equivalent fibrin formation inhibition to that of the MARCKS ED peptides | –
3 | B1 | – | equivalent fibrin formation inhibition to that of the MARCKS ED peptides | Neither D-MARCKS ED nor annexin V labeled the unstimulated platelets
